From patent US20250152584A1, “NLRP3 INFLAMMASOME INHIBITOR AND USES THEREOF” (TransThera Sciences (Nanjing), Inc., priority 2022, published 2025)

Tests used:
[1] = Pharmacokinetic study in beagles; assay type: in vivo; conditions: beagle, dog, plasma, male beagles; for Cmax: read-out: Cmax po (peak concentration); for Tmax: read-out: Tmax po (peak time of plasma concentration); for clearance: read-out: Cl—obs iv (clearance rate) (converted); for Vd: read-out: Vss iv (volume of distribution); for bioavailability: iv 1.0 mg/kg / po 1.0 mg/kg, read-out: F % (absolute bioavailability)
Description: Experimental Example 4: Pharmacokinetic Study of Compounds in Beagles
Compound 174 was prepared into a solution with a mixed solvent formulated from 5% dimethyl sulfoxide, 20% (30% solutol) and 75% normal saline; the solution of this compound was administered to male beagles by gavage at a dose of 1.0 mg/kg; and the time points for blood collection were: 15 min, 30 min, 1 b, 2 h, 4 h, 6 b, 8 h, 10 h and 24 h. The solution of the compound was administered to male beagles by intravenous bolus at a dose of 1.0 mg/kg, and the time points for blood collection were as follows: 5 min, 15 min, 30 min, 1 h, 2 h, 4 h, 6 h, 8 h, 10 h, and 24 h.
Compound 177 and Compound 195 were prepared into solutions with a mixed solvent formulated from 5% dimethyl sulfoxide, 20% (30% solutol) and 75% normal saline, respectively; the solutions of these compounds were administered to male beagles by gavage at a dose of 1.0 mg/kg; and the time points for blood collection were: 15 min, 30 min, 1 h, 2 h, 4 h, 6 h, 8 h, 10 h and 24 h. The solution of the compound was administered to male beagles by intravenous bolus at a dose of 1.0 mg/kg, and the time points for blood collection were as follows: 5 min, 15 min, 30 min, 1 h, 2 h, 4 h, 6 h, 8 h, 10 h, and 24 h.
Approximately 400 μL of blood was collected through the medial cephalic vein of the forelimb and placed in an anticoagulant tube containing EDTA-K2. Blood samples were centrifuged at 12,000 rpm for 10 min at 4° C. to obtain plasma samples, and plasma was prepared within 30 min after blood collection. The plasma was stored in a −80° C. freezer before testing.

[2] = Pharmacokinetic study in C57BL/6J mice; assay type: in vivo; conditions: mouse, plasma, C57BL/6J female mice
Description: Experimental Example 2: Pharmacokinetic Study of Compounds in C57BL/6J Mice
Compound 100, Compound 54, Compound 174, Compound 179, and Compound 253 were prepared into solutions with a mixed solvent formulated from 5% dimethyl sulfoxide, 20% (30% solutol) and 75% normal saline, respectively; the solution of each compound was administered to C57BL/6J female mice by gavage at a dose of 10 mg/kg; and the time points for blood collection were: 15 min, 30 min, 1 h, 2 h, 4 h, 6 h, 8 h and 24 h. The solution of the compound was administered to C57BL/6J female mice by intravenous bolus at a dose of 5 mg/kg, and the time points for blood collection were as follows: 5 min, 15 min, 30 min, 1 h, 2 h, 4 h, 6 h, 8 h, and 24 h.
Compound 1 was prepared into a solution with a mixed solvent formulated from 5% DME, 20% (30% solutol) and 75% normal saline; the solution of this compound was administered to C57BL/6J female mice by gavage at a dose of 10 mg/kg, and the time points for blood collection were: 15 min, 30 min, 1 h, 2 h, 4 h, 6 h, 8 h, and 24 h. The solution of the compound was administered to C57BL/6J female mice by intravenous bolus at a dose of 5 mg/kg, and the time points for blood collection were as follows: 5 min, 15 min, 30 min, 1 h, 2 h, 4 h, 6 h, 8 h, and 24 h.
Compound 195 was prepared into a solution with a mixed solvent formulated from 5% dimethyl sulfoxide, 20% PEG400 and 75% normal saline; the solution of this compound was administered to C57BL/6J female mice by gavage at a dose of 10 mg/kg; and the time points for blood collection were 15 min, 30 min, 1 h, 2 h, 4 h, 6 h, 8 h, and 24 b. The solution of the compound was administered to C57BL/6J female mice by intravenous bolus at a dose of 5 mg/kg, and the time points for blood collection were as follows: 5 min, 15 min, 30 min, 1 h, 2 b, 4 h, 6 h, 8 h, and 24 h.
Approximately 100 μL of blood was collected through the retroorbital venous plexus, and was then placed in an anticoagulant tube containing EDTA-K2. Blood samples were centrifuged at 12,000 rpm for 10 min at 4° C. to obtain plasma samples, and plasma was prepared within 30 min after blood collection. The plasma was stored in a −80° C. freezer before testing.
• 1. The samples were taken from the −80° C. freezer, thawed naturally at room temperature, and then vortexed for 5 min • 2. 10 μL of a plasma sample was precisely pipetted from different individuals into a 1.5 mL centrifuge tube. • 3. 300 μL of an internal standard working solution (the acetonitrile solution of tolbutamide) at a concentration of […] was added and mixed well. • 4. After vortexing for 5 min, the mixture was centrifuged at 12,000 rpm for 5 min. • 5. 50 μL of the supernatant was accurately pipetted into a 96-well plate preloaded with water at 150 μL/well. • 6. Vortexing was performed for 5 min for sufficient mixing, and LC-MS/MS analysis was then conducted.
The results of the concentrations of the compounds under test were output using Analyst 1.6.3 of AB. Parameters such as mean, standard deviation, coefficient of variation was calculated by Microsoft Excel (parameters directly output by Analyst 1.6.3 needed no calculation), and PK parameters were calculated by WinNonlin Phenoix 8.2 software NCA (Tmax as the median).

[3] = po, gavage 1.0 mg/kg, read-out: AUClast po (area under the drug-time curve for 0-24 h)
[4] = po, gavage 1.0 mg/kg, read-out: tz1/2 po (terminal elimination half-life) (converted)
[5] = intravenous bolus 1.0 mg/kg, read-out: AUClast iv (area under the drug-time curve for 0-24 h)
[6] = intravenous bolus 1.0 mg/kg, read-out: tz1/2 iv (terminal elimination half-life) (converted)

Structure (SMILES) | AUC(0-t) [1, 3] | Cmax ([1]; po, gavage 1.0 mg/kg) | Tmax ([1]; po, gavage 1.0 mg/kg) | half-life [1, 4] | AUC(0-t) [1, 5] | clearance ([1]; intravenous bolus 1.0 mg/kg) | Vd ([1]; intravenous bolus 1.0 mg/kg) | half-life [1, 6] | bioavailability [1] | Tmax ([2]; po, gavage 10 mg/kg, median, read-out: Tmax po (peak time of plasma concentration)) | AUC(0-t) ([2]; po, gavage 10 mg/kg, read-out: AUClast po (area under the drug-time curve for 0-24 h)) | Cmax ([2]; po, gavage 10 mg/kg, read-out: Cmax po (peak concentration)) | half-life ([2]; po, gavage 10 mg/kg, read-out: tz1/2 po (terminal elimination half-life) (converted)) | AUC(0-t) ([2]; intravenous bolus 5 mg/kg, read-out: AUClast iv (area under the drug-time curve for 0-24 h)) | clearance ([2]; intravenous bolus 5 mg/kg, read-out: Cl—obs iv (clearance rate) (converted)) | Vd ([2]; intravenous bolus 5 mg/kg, read-out: Vss iv (volume of distribution)) | half-life ([2]; intravenous bolus 5 mg/kg, read-out: tz1/2 iv (terminal elimination half-life) (converted)) | bioavailability ([2]; iv 5 mg/kg / po 10 mg/kg, read-out: F % (absolute bioavailability))
C#Cc1ccc(-c2nnc(N[C@@H]3CCCN(C)C3)nc2C)c(O)c1 [Compound 177] | 1920 ng·h/mL | 293 ng/mL | 1 h | 5.9 h | 1240 ng·h/mL | 13 mL/min/kg | 5.53 L/kg | 5.58 h | 154% |  |  |  |  |  |  |  |  | 
CC#Cc1ccc(-c2nnc(N[C@@H]3CCCN(C)C3)nc2C)c(O)c1 [Compound 195] | 1900 ng·h/mL | 206 ng/mL | 4 h | 11 h | 2320 ng·h/mL | 6.58 mL/min/kg | 3.74 L/kg | 8.16 h | 90.7% | 1 h | 7860 ng·h/mL | 1230 ng/mL | 3.12 h | 3580 ng·h/mL | 23.2 mL/min/kg | 5.14 L/kg | 3.89 h | 110%
